Results as given in PubChem BioAssay AID210 (DTP/NCI, 2004).
Values joined by “and” are separate entries in the source; they are usually repeats but may differ in a detail not shown here. Equal values may be shown once. Inconclusive results and toxic doses are left out.

Tested on: CD2F1 mice, ip Colon 26 adenocarcinoma, median survival T/C
Assay: NCI In Vivo Anticancer Drug Screen. Data for tumor model Colon 26 Adenocarcinoma (intraperitoneal) in CD2F1 (CDF1) mice
Conditions: endpoint: median survival time, higher = longer survival
Procedure: The antitumor activity of compounds was measured in mice bearing transplantable tumors. Survival or tumor size were measured and the results are expressed as the measurement made in the treated group (T) divided by the measurement made in the vehicle treated control group (C). The tumor model used in this assay is Colon 26 Adenocarcinoma (intraperitoneal) in CD2F1 (CDF1) mice

[1] = dose: 8.0 mg/kg/injection, schedule: Q04DX003 (ip), vehicle: Klucel (hydroxypropylcellulose) (HPC)
[2] = dose: 16.0 mg/kg/injection, schedule: Q04DX003 (ip), vehicle: Klucel (hydroxypropylcellulose) (HPC)
[3] = dose: 32.0 mg/kg/injection, schedule: Q04DX003 (ip), vehicle: Klucel (hydroxypropylcellulose) (HPC)
[4] = dose: 64.0 mg/kg/injection, schedule: Q04DX003 (ip), vehicle: Klucel (hydroxypropylcellulose) (HPC)

Nc1nncs1
T/C (dose: 50.0 mg/kg/injection, schedule: Q01DX005 (ip), vehicle: saline): 112 % of control | T/C (dose: 50.0 mg/kg/injection, schedule: Q04DX003 (ip), vehicle: saline): 119 % of control | T/C (dose: 100.0 mg/kg/injection, schedule: Q01DX005 (ip), vehicle: saline): 120 % of control

O=c1[nH]c(=O)n(C2CC(O)C(CO)O2)cc1F (stereo unspecified)
T/C (dose: 80.0 mg/kg/injection, schedule: Q07DX003 (ip), vehicle: saline): 155 % of control | T/C (dose: 120.0 mg/kg/injection, schedule: Q07DX003 (ip), vehicle: saline): 161 % of control and 171 % of control | T/C (dose: 190.0 mg/kg/injection, schedule: Q07DX003 (ip), vehicle: saline): 150 % of control and 167 % of control | T/C (dose: 280.0 mg/kg/injection, schedule: Q07DX003 (ip), vehicle: saline): 167 % of control and 169 % of control

ClCCCCCCCCCCc1ccccc1
T/C (dose: 12.5 mg/kg/injection, schedule: Q04DX003 (ip), vehicle: Klucel (hydroxypropylcellulose) (HPC)): 102 % of control | T/C (dose: 25.0 mg/kg/injection, schedule: Q04DX003 (ip), vehicle: Klucel (hydroxypropylcellulose) (HPC)): 106 % of control | T/C (dose: 50.0 mg/kg/injection, schedule: Q04DX003 (ip), vehicle: Klucel (hydroxypropylcellulose) (HPC)): 100 % of control | T/C (dose: 100.0 mg/kg/injection, schedule: Q04DX003 (ip), vehicle: Klucel (hydroxypropylcellulose) (HPC)): 100 % of control | T/C (dose: 200.0 mg/kg/injection, schedule: Q04DX003 (ip), vehicle: Klucel (hydroxypropylcellulose) (HPC)): 106 % of control | T/C (dose: 400.0 mg/kg/injection, schedule: Q04DX003 (ip), vehicle: Klucel (hydroxypropylcellulose) (HPC)): 114 % of control

NC(=O)c1[nH]nc(C2OC(CO)C(O)C2O)c1O (stereo unspecified)
T/C (dose: 2.59 mg/kg/injection, schedule: Q04DX003 (ip), vehicle: saline): 115 % of control | T/C (dose: 4.32 mg/kg/injection, schedule: Q04DX003 (ip), vehicle: saline): 107 % of control | T/C (dose: 7.2 mg/kg/injection, schedule: Q04DX003 (ip), vehicle: saline): 123 % of control | T/C (dose: 12.0 mg/kg/injection, schedule: Q04DX003 (ip), vehicle: saline): 118 % of control | T/C (dose: 20.0 mg/kg/injection, schedule: Q04DX003 (ip), vehicle: saline): 90 % of control

O=NN(CCCl)C(=O)NC1CCCCC1
T/C (dose: 10.0 mg/kg/injection, schedule: Q04DX003 (ip), vehicle: carboxymethylcellulose (CMC)): 121 % of control | T/C (dose: 40.0 mg/kg/injection, schedule: Q04DX003 (ip), vehicle: carboxymethylcellulose (CMC)): 196 % of control | T/C (dose: 80.0 mg/kg/injection, schedule: Q04DX003 (ip), vehicle: carboxymethylcellulose (CMC)): 159 % of control

O=C1c2ccccc2C(=O)c2c(NCCNCCO)ccc(NCCNCCO)c21
T/C (dose: 2.0 mg/kg/injection, schedule: Q01DX009 (ip), vehicle: saline): 191 % of control | T/C (dose: 2.5 mg/kg/injection, schedule: Q01DX009 (ip), vehicle: saline): 200 % of control and 223 % of control | T/C (dose: 2.62 mg/kg/injection, schedule: Q01DX009 (ip), vehicle: saline): 172 % of control | T/C (dose: 3.89 mg/kg/injection, schedule: Q01DX009 (ip), vehicle: saline): 209 % of control | T/C (dose: 3.89 mg/kg/injection, schedule: Q01DX009 (sc), vehicle: saline): 104 % of control | T/C (dose: 4.0 mg/kg/injection, schedule: Q01DX009 (ip), vehicle: acid diluted with saline): 182 % of control | T/C (dose: 4.0 mg/kg/injection, schedule: Q01DX009 (ip), vehicle: saline): 226 % of control | T/C (dose: 5.0 mg/kg/injection, schedule: Q01DX009 (ip), vehicle: saline): 193 % of control and 223 % of control | T/C (dose: 5.25 mg/kg/injection, schedule: Q01DX009 (ip), vehicle: saline): 213 % of control | T/C (dose: 6.22 mg/kg/injection, schedule: Q04DX003 (iv), vehicle: saline): 110 % of control | T/C (dose: 6.48 mg/kg/injection, schedule: Q01DX009 (ip), vehicle: saline): 209 % of control | T/C (dose: 6.48 mg/kg/injection, schedule: Q01DX009 (sc), vehicle: saline): 104 % of control | T/C (dose: 7.78 mg/kg/injection, schedule: Q01DX001 (iv), vehicle: saline): 104 % of control | T/C (dose: 8.0 mg/kg/injection, schedule: Q01DX009 (ip), vehicle: acid diluted with saline): 219 % of control | T/C (dose: 8.0 mg/kg/injection, schedule: Q01DX009 (ip), vehicle: saline): 236 % of control | T/C [1]: 168 % of control | T/C (dose: 8.0 mg/kg/injection, schedule: Q04DX003 (ip), vehicle: water): 121 % of control and 209 % of control | T/C (dose: 10.0 mg/kg/injection, schedule: Q01DX009 (ip), vehicle: saline): 212 % of control and 267 % of control | T/C (dose: 10.4 mg/kg/injection, schedule: Q04DX003 (iv), vehicle: saline): 106 % of control | T/C (dose: 10.5 mg/kg/injection, schedule: Q01DX009 (ip), vehicle: saline): 294 % of control | T/C (dose: 10.8 mg/kg/injection, schedule: Q01DX009 (ip), vehicle: saline): 182 % of control | T/C (dose: 10.8 mg/kg/injection, schedule: Q01DX009 (sc), vehicle: saline): 105 % of control | T/C (dose: 13.0 mg/kg/injection, schedule: Q01DX001 (iv), vehicle: saline): 116 % of control | T/C (dose: 16.0 mg/kg/injection, schedule: Q01DX009 (ip), vehicle: acid diluted with saline): 219 % of control | T/C (dose: 16.0 mg/kg/injection, schedule: Q01DX009 (ip), vehicle: saline): 305 % of control | T/C [2]: 200 % of control and 170 % of control and 220 % of control | T/C (dose: 16.0 mg/kg/injection, schedule: Q04DX003 (ip), vehicle: water): 188 % of control and 287 % of control | T/C (dose: 17.3 mg/kg/injection, schedule: Q04DX003 (ip), vehicle: saline): 189 % of control | T/C (dose: 17.3 mg/kg/injection, schedule: Q04DX003 (iv), vehicle: saline): 101 % of control | T/C (dose: 18.0 mg/kg/injection, schedule: Q01DX009 (ip), vehicle: saline): 182 % of control | T/C (dose: 18.0 mg/kg/injection, schedule: Q01DX009 (sc), vehicle: saline): 99 % of control | T/C (dose: 20.0 mg/kg/injection, schedule: Q01DX009 (ip), vehicle: saline): 193 % of control | T/C (dose: 21.0 mg/kg/injection, schedule: Q01DX009 (ip), vehicle: saline): 268 % of control | T/C (dose: 21.6 mg/kg/injection, schedule: Q01DX001 (iv), vehicle: saline): 100 % of control | T/C (dose: 25.0 mg/kg/injection, schedule: Q07DX003 (iv), vehicle: Klucel (hydroxypropylcellulose) (HPC)): 104 % of control | T/C (dose: 28.8 mg/kg/injection, schedule: Q04DX003 (ip), vehicle: saline): 150 % of control | T/C (dose: 28.8 mg/kg/injection, schedule: Q04DX003 (iv), vehicle: saline): 101 % of control | T/C (dose: 30.0 mg/kg/injection, schedule: Q01DX009 (sc), vehicle: saline): 90 % of control | T/C (dose: 32.0 mg/kg/injection, schedule: Q01DX009 (ip), vehicle: acid diluted with saline): 274 % of control | T/C [3]: 162 % of control and 182 % of control | T/C (dose: 32.0 mg/kg/injection, schedule: Q04DX003 (ip), vehicle: water): 159 % of control and 287 % of control | T/C (dose: 36.0 mg/kg/injection, schedule: Q01DX001 (iv), vehicle: saline): 109 % of control | T/C (dose: 42.0 mg/kg/injection, schedule: Q01DX009 (ip), vehicle: saline): 268 % of control | T/C (dose: 48.0 mg/kg/injection, schedule: Q04DX003 (ip), vehicle: saline): 161 % of control | T/C (dose: 48.0 mg/kg/injection, schedule: Q04DX003 (iv), vehicle: saline): 108 % of control | T/C (dose: 50.0 mg/kg/injection, schedule: Q07DX003 (iv), vehicle: Klucel (hydroxypropylcellulose) (HPC)): 108 % of control | T/C (dose: 60.0 mg/kg/injection, schedule: Q01DX001 (iv), vehicle: saline): 105 % of control | T/C [4]: 163 % of control and 173 % of control | T/C (dose: 64.0 mg/kg/injection, schedule: Q04DX003 (ip), vehicle: water): 177 % of control and 209 % of control | T/C (dose: 80.0 mg/kg/injection, schedule: Q04DX003 (ip), vehicle: saline): 165 % of control

COc1cccc2c1C(=O)c1c(O)c3c(c(O)c1C2=O)C[C@@](O)(C(C)=O)C[C@@H]3OC1CC(O)C(O)C(C)O1 (stereo partly specified)
T/C (dose: 31.0 mg/kg/injection, schedule: Q07DX002 (iv), vehicle: saline): 108 % of control

N/C(=N\O)c1cn(C2OC(CO)C(O)C2O)c2ncnc(N)c12 (stereo unspecified)
T/C (dose: 2.0 mg/kg/injection, schedule: Q04DX003 (ip), vehicle: Klucel (hydroxypropylcellulose) (HPC)): 116 % of control | T/C [2]: 167 % of control

CC(C)NCC(O)COc1cccc2ccccc12 (stereo unspecified)
T/C (dose: 4.0 mg/kg/injection, schedule: Q04DX003 (ip), vehicle: Klucel (hydroxypropylcellulose) (HPC)): 109 % of control | T/C [1]: 102 % of control | T/C [2]: 107 % of control | T/C [3]: 101 % of control | T/C [4]: 107 % of control

CCCCCCCC(=O)[O][Hg][CH2]C1COC([CH2][Hg][O]C(=O)CCCCCCC)CO1 (stereo unspecified)
T/C (dose: 12.5 mg/kg/injection, schedule: Q04DX003 (ip), vehicle: saline with Tween-80): 95 % of control | T/C (dose: 25.0 mg/kg/injection, schedule: Q04DX003 (ip), vehicle: saline with Tween-80): 90 % of control
